Assay results taken from PubChem BioAssay AID1963836 (Molecular Pharmacology Branch, DTP, NCI, 2024).

Tested on: 857933-349-R-J2-PDC complex spheroid viability
Assay: Anticancer human tumor 857933-349-R-J2-PDC patient-derived colon adenocarcinoma cell line growth inhibition [POLQ]
Conditions: for IC50: curve of first compound; for viability, T/C: stronger effect = lower value; active means viability on the fitted dose curve at most 10% of control; inactive means the rest
Procedure, shortened: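 Complex spheroid viability model combining PDC tumour cells with endothelial (HUVEC) and MSC stromal cells. Novobiocin, ART-558 or RP6685 were tested singly and in combination with standard and investigational anticancer drugs. Each was titrated in half-log steps from near clinical Cmax, or from 10 microM where Cmax was unknown.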

[1] = second compound 0.0316 µM, first compound 0.0316 µM
[2] = second compound 0.0316 µM, first compound 0.1 µM
[3] = second compound 0.0316 µM, first compound 0.316 µM
[4] = second compound 0.0316 µM, first compound 1 µM
[5] = second compound 0.0316 µM, first compound 3.16 µM
[6] = second compound 0.0316 µM, first compound 10 µM
[7] = second compound 0.1 µM, first compound 0.0316 µM
[8] = second compound 0.1 µM, first compound 0.1 µM
[9] = second compound 0.1 µM, first compound 0.316 µM
[10] = second compound 0.1 µM, first compound 1 µM
[11] = second compound 0.1 µM, first compound 3.16 µM
[12] = second compound 0.1 µM, first compound 10 µM
[13] = second compound 0.316 µM, first compound 0.0316 µM
[14] = second compound 0.316 µM, first compound 0.1 µM
[15] = second compound 0.316 µM, first compound 0.316 µM
[16] = second compound 0.316 µM, first compound 1 µM
[17] = second compound 0.316 µM, first compound 3.16 µM
[18] = second compound 0.316 µM, first compound 10 µM
[19] = second compound 1 µM, first compound 0.0316 µM
[20] = second compound 1 µM, first compound 0.1 µM
[21] = second compound 1 µM, first compound 0.316 µM
[22] = second compound 1 µM, first compound 1 µM
[23] = second compound 1 µM, first compound 3.16 µM
[24] = second compound 1 µM, first compound 10 µM
[25] = second compound 3.16 µM, first compound 0.0316 µM
[26] = second compound 3.16 µM, first compound 0.1 µM
[27] = second compound 3.16 µM, first compound 0.316 µM
[28] = second compound 3.16 µM, first compound 1 µM
[29] = second compound 3.16 µM, first compound 3.16 µM
[30] = second compound 3.16 µM, first compound 10 µM
[31] = second compound 10 µM, first compound 0.0316 µM
[32] = second compound 10 µM, first compound 0.1 µM
[33] = second compound 10 µM, first compound 0.316 µM
[34] = second compound 10 µM, first compound 1 µM
[35] = second compound 10 µM, first compound 3.16 µM
[36] = second compound 10 µM, first compound 10 µM
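Further: spheroids exposed to compounds for seven days before readout.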

COc1cccc2c1C(=O)c1c(O)c3c(c(O)c1C2=O)CC(O)(C(=O)CO)CC3OC1CC(N)C(O)C(C)O1 (stereo unspecified) + Cc1cccc(N(C)C(=O)C2C(O)CCN2c2nc(C)cc(C(F)(F)F)c2C#N)c1
active: viability, T/C [5] 0.52% | viability, T/C [6] 0.28% | viability, T/C [11] 0.41% | viability, T/C [12] 0.35% | viability, T/C [17] 0.45% | viability, T/C [18] 0.46% | viability, T/C [22] 6.42% | viability, T/C [23] 0.28% | viability, T/C [24] 0.34% | viability, T/C [29] 0.38% | viability, T/C [30] 0.47% | viability, T/C [34] 4.82% | viability, T/C [35] 0.36% | viability, T/C [36] 0.46%
196 nM: IC50 (second compound 1 µM)
199 nM: IC50 (second compound 3.16 µM)
176 nM: IC50 (second compound 10 µM)
inactive: viability, T/C [1] 86.9% | viability, T/C [2] 62.2% | viability, T/C [3] 47.1% | viability, T/C [4] 17% | viability, T/C [7] 76.9% | viability, T/C [8] 79.5% | viability, T/C [9] 48.4% | viability, T/C [10] 12.9% | viability, T/C [13] 70.4% | viability, T/C [14] 79.1% | viability, T/C [15] 46.7% | viability, T/C [16] 14% | viability, T/C [19] 74.1% | viability, T/C [20] 60.1% | viability, T/C [21] 42.3% | viability, T/C [25] 86.2% | viability, T/C [26] 66.4% | viability, T/C [27] 40.2% | viability, T/C [28] 7.89% | viability, T/C [31] 65.9% | viability, T/C [32] 64.1% | viability, T/C [33] 35.7%
218 nM: IC50 (second compound 0.0316 µM)
315 nM: IC50 (second compound 0.1 µM)
304 nM: IC50 (second compound 0.316 µM)

C=CC(=O)N1CCN(c2nc(=O)n(-c3c(C)ccnc3C(C)C)c3nc(-c4c(O)cccc4F)c(F)cc23)C(C)C1 (stereo unspecified) + Cc1cccc(N(C)C(=O)C2C(O)CCN2c2nc(C)cc(C(F)(F)F)c2C#N)c1
> 10000 nM: IC50 (second compound 0.0316 µM) | IC50 (second compound 0.1 µM) | IC50 (second compound 0.316 µM) | IC50 (second compound 1 µM) | IC50 (second compound 3.16 µM) | IC50 (second compound 10 µM)
inactive: viability, T/C [1] 101% | viability, T/C [2] 104% | viability, T/C [3] 94.8% | viability, T/C [4] 113% | viability, T/C [5] 97.2% | viability, T/C [6] 80.5% | viability, T/C [7] 114% | viability, T/C [8] 106% | viability, T/C [9] 73% | viability, T/C [10] 112% | viability, T/C [11] 98.9% | viability, T/C [12] 85.3% | viability, T/C [13] 91.1% | viability, T/C [14] 100% | viability, T/C [15] 109% | viability, T/C [16] 87.4% | viability, T/C [17] 84.4% | viability, T/C [18] 70% | viability, T/C [19] 95.3% | viability, T/C [20] 95.2% | viability, T/C [21] 89.3% | viability, T/C [22] 101% | viability, T/C [23] 113% | viability, T/C [24] 97.9% | viability, T/C [25] 76.5% | viability, T/C [26] 106% | viability, T/C [27] 109% | viability, T/C [28] 84% | viability, T/C [29] 99.8% | viability, T/C [30] 95.2% | viability, T/C [31] 88.7% | viability, T/C [32] 84.2% | viability, T/C [33] 101% | viability, T/C [34] 85.9% | viability, T/C [35] 91.8% | viability, T/C [36] 77.7%

Cn1ncnc1[C@H]1c2n[nH]c(=O)c3cc(F)cc(c23)N[C@@H]1c1ccc(F)cc1 + Cc1cccc(N(C)C(=O)C2C(O)CCN2c2nc(C)cc(C(F)(F)F)c2C#N)c1
> 100 nM: IC50 (second compound 0.0316 µM) | IC50 (second compound 0.1 µM) | IC50 (second compound 0.316 µM) | IC50 (second compound 1 µM) | IC50 (second compound 3.16 µM) | IC50 (second compound 10 µM)
inactive: viability, T/C (second compound 0.0316 µM, first compound 0.000316 µM) 101% | viability, T/C (second compound 0.0316 µM, first compound 0.001 µM) 115% | viability, T/C (second compound 0.0316 µM, first compound 0.00316 µM) 114% | viability, T/C (second compound 0.0316 µM, first compound 0.01 µM) 125% | viability, T/C [1] 98.2% | viability, T/C [2] 97.3% | viability, T/C (second compound 0.1 µM, first compound 0.000316 µM) 110% | viability, T/C (second compound 0.1 µM, first compound 0.001 µM) 116% | viability, T/C (second compound 0.1 µM, first compound 0.00316 µM) 120% | viability, T/C (second compound 0.1 µM, first compound 0.01 µM) 80% | viability, T/C [7] 101% | viability, T/C [8] 103% | viability, T/C (second compound 0.316 µM, first compound 0.000316 µM) 97.5% | viability, T/C (second compound 0.316 µM, first compound 0.001 µM) 102% | viability, T/C (second compound 0.316 µM, first compound 0.00316 µM) 95.8% | viability, T/C (second compound 0.316 µM, first compound 0.01 µM) 86.2% | viability, T/C [13] 101% | viability, T/C [14] 99.8% | viability, T/C (second compound 1 µM, first compound 0.000316 µM) 85.1% | viability, T/C (second compound 1 µM, first compound 0.001 µM) 96.5% | viability, T/C (second compound 1 µM, first compound 0.00316 µM) 80.9% | viability, T/C (second compound 1 µM, first compound 0.01 µM) 82% | viability, T/C [19] 103% | viability, T/C [20] 95.2% | viability, T/C (second compound 3.16 µM, first compound 0.000316 µM) 96.4% | viability, T/C (second compound 3.16 µM, first compound 0.001 µM) 116% | viability, T/C (second compound 3.16 µM, first compound 0.00316 µM) 92.7% | viability, T/C (second compound 3.16 µM, first compound 0.01 µM) 108% | viability, T/C [25] 96.2% | viability, T/C [26] 97.1% | viability, T/C (second compound 10 µM, first compound 0.000316 µM) 91% | viability, T/C (second compound 10 µM, first compound 0.001 µM) 115% | viability, T/C (second compound 10 µM, first compound 0.00316 µM) 108% | viability, T/C (second compound 10 µM, first compound 0.01 µM) 112% | viability, T/C [31] 110% | viability, T/C [32] 104%
